Series [1] concerns the target T1, High affinity cGMP-specific 3',5'-cyclic phosphodiesterase 9A (Homo sapiens, UniProt O76083). The experiment in a line: Inhibition of PDE9 (unknown origin) using [3H]-cGMP as substrate after 1 hr by scintillation counting method.
The target of series [2] is T1, High affinity cGMP-specific 3',5'-cyclic phosphodiesterase 9A. The experiment in a line: Inhibition of PDE9 (unknown origin) at 10 uM using [3H]-cGMP as substrate after 1 hr by scintillation counting method relative to control.
A short description of series [3]: Acidic dissociation constant, pKa of compound at 10 uM by UV/Vis spectroscopy. In kind it is physicochemical.
Series [4] is described as follows: Basic dissociation constant, pKa of compound at 10 uM by UV/Vis spectroscopy. It counts as physicochemical.

T1 sequence (O76083 whole entry): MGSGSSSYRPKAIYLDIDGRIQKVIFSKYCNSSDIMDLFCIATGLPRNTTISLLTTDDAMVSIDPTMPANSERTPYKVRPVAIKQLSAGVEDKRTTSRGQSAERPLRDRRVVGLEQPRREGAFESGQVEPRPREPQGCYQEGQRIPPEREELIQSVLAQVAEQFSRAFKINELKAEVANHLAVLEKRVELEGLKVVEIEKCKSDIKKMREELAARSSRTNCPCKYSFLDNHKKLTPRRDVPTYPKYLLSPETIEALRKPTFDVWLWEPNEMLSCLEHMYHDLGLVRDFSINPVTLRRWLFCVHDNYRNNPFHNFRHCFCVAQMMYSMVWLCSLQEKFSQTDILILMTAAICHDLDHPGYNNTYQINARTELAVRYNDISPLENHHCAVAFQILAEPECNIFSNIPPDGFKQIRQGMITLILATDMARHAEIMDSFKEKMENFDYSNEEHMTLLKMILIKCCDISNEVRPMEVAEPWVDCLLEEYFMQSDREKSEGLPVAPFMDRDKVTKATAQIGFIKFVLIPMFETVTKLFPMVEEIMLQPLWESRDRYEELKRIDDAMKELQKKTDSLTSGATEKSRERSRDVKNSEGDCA

For `C[C@@H]1CN(Cc2ccc(F)cc2)C[C@H]1c1nc2c(cnn2C2CCOCC2)c(=O)[nH]1`, it took 0.017 µM to reach half-maximal inhibition in series [1] (IC50).
On the same count and under the same terms, the result for `Cc1ncc(CN2C[C@@H](C)[C@H](c3nc4c(cnn4C4CCOCC4)c(=O)[nH]3)C2)cn1` reads 0.036 µM.
As for `Cc1ncc(CN2C[C@@H](C)[C@](F)(c3nc4c(cnn4C4CCOCC4)c(=O)n3C)C2)cn1`, the inhibition (usually the percentage by which the read-out fell short of the control) in series [2] turned out to be 14%.
As for `Cc1cnc(CN2C[C@@H](C)[C@H](c3nc4c(cnn4C4CCOCC4)c(=O)[nH]3)C2)cn1`, in series [1], the half-inhibitory concentration (IC50) (in general, the concentration needed to halve the response being measured) came to 0.059 µM.
As for `C[C@@H]1CN(Cc2ncccn2)C[C@@]1(F)c1nc2c(cnn2C2CCOCC2)c(=O)[nH]1`, the pKa (usually the negative logarithm of the acid dissociation constant) at 10 µM worked out at 8.4 in series [3] and 5.6 in series [4].
For `C[C@@H]1CN(Cc2ncccn2)C[C@H]1c1nc2c(cnn2C2CCOCC2)c(=O)[nH]1` [EDELINONTRINE], in that order: 9.6 and 6.8.
Turning to `Cc1cnc(CN2C[C@@H](C)[C@](F)(c3nc4c(cnn4C4CCOCC4)c(=O)n3C)C2)cn1`, in series [2], the inhibition is 22%.
The same measure, in the same setting: next, `Cc1cnc(CN2C[C@@H](C)[C@H](c3nc4c(cnn4C4CCOCC4)c(=O)n3C)C2)cn1`: 66%.

Source of the values: ChEMBL document CHEMBL4257517, “Elucidation of fluorine's impact on pKa and in vitro Pgp-mediated efflux for a series of PDE9 inhibitors” (Medchemcomm, 2018).
